Measurements: PubChem BioAssay (NCI)
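Five compound concentrations were applied to cells in 96-well plates for 48 hours; endpoints were derived by simple linear interpolation of the resulting dose-response curve. TGI: total growth inhibition.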

Key:
Assay in all cases: NCI anticancer screen, dose series, 48 h
EKVX NSCLC = tested on: EKVX NSCLC
U251 CNS = tested on: U251 CNS
NCI-H522 lung = tested on: NCI-H522 lung
KM12 colon = tested on: KM12 colon
UACC-257 melanoma = tested on: UACC-257 melanoma
HOP-92 NSCLC = tested on: HOP-92 NSCLC
SN12C renal = tested on: SN12C renal
NCI-H23 lung = tested on: NCI-H23 lung
IGROV1 ovarian = tested on: IGROV1 ovarian
SNB-19 CNS = tested on: SNB-19 CNS
MDA-N = tested on: MDA-N
SF-295 CNS = tested on: SF-295 CNS
SK-OV-3 ovarian = tested on: SK-OV-3 ovarian
CCRF-CEM leukemia = tested on: CCRF-CEM leukemia
SK-MEL-5 melanoma = tested on: SK-MEL-5 melanoma
SK-MEL-28 melanoma = tested on: SK-MEL-28 melanoma
LOX IMVI melanoma = tested on: LOX IMVI melanoma
SR leukemia = tested on: SR leukemia
NCI-H226 lung = tested on: NCI-H226 lung
HL-60(TB) leukemia = tested on: HL-60(TB) leukemia

Row | Compound | TGI (EKVX NSCLC) [µM] | TGI (U251 CNS) [µM] | TGI (NCI-H522 lung) [µM] | TGI (KM12 colon) [µM] | TGI (UACC-257 melanoma) [µM] | TGI (HOP-92 NSCLC) [µM] | TGI (SN12C renal) [µM] | TGI (NCI-H23 lung) [µM] | TGI (IGROV1 ovarian) [µM] | TGI (SNB-19 CNS) [µM] | TGI (MDA-N) [µM] | TGI (SF-295 CNS) [µM] | TGI (SK-OV-3 ovarian) [µM] | TGI (CCRF-CEM leukemia) [µM] | TGI (SK-MEL-5 melanoma) [µM] | TGI (SK-MEL-28 melanoma) [µM] | TGI (LOX IMVI melanoma) [µM] | TGI (SR leukemia) [µM] | TGI (NCI-H226 lung) [µM] | TGI (HL-60(TB) leukemia) [µM]
1 | OC12CC3c4ccccc4NC3C3Oc4cccc5c4C31CCN(CC1CC1)C2C5 (configuration not stated) | 87.7 | 31.1 | 39.7 | 37.3 | 32.4 | 24.5 | 34.4 | 30.6 | 29.8 | 36.8 | 35.1 | 94.1 | 34.6 | 71 | 31.5 | 28.6 | 30 | 59 | 74.9 | 
2 | CN(C)Cc1cc(C(=O)/C=C/c2ccc(Br)cc2)cc(CN(C)C)c1O | 36.3 | 33.5 | 12.6 | 5.88 | 19.5 |  | 14.8 | 33 | 26.3 | 26.6 | 9.81 | 19 |  | 26.7 | 28.5 | 25.3 | 5.43 | 50.6 | 35.9 | 20.5
3 | COc1cc(/C=C/C=C2\CCC/C(=C\C=C\c3ccc(O)c(OC)c3)C2=O)ccc1O | 64.7 | > 100 | 3.39 | 97.4 | 31.4 | 44.9 | 65.8 | > 100 | 74.7 | > 100 | > 100 | 27 | > 100 | 8.99 | 27.2 | 30.2 | 33.5 | 19.7 |  | > 100
4 | CCOC(=O)CCC(NC(=O)c1ccc(Nc2cnc3cc(C(F)(F)F)ccc3n2)cc1)C(=O)OCC (configuration not stated) | > 100 | 15.3 | > 100 | > 100 | > 100 | 49.6 | > 100 | > 100 | > 100 | > 47.8 | > 100 | 26 |  | > 100 | > 100 | > 100 | > 100 | > 100 | > 100 | > 100
5 | CC(=O)/C(N=Nc1ccc(-n2c(C)nc3ccc(Br)cc3c2=O)cc1)=C(/C)O | > 100 | > 100 |  | > 100 | > 100 | > 100 | > 100 | > 100 | > 100 | > 100 | > 100 | > 100 | > 100 | > 100 | > 100 | > 100 | > 100 | > 100 | > 100 | > 100
6 | CCc1cccc(CC)c1Nc1nc2c(s1)C(=O)c1ccccc1C2=O | 36.1 | 29.8 | 83.3 | 41 | 37.8 | 44.7 | 47.9 | 32.8 | 25.7 | 31.9 | 32.3 | 27.8 | 89.8 | > 100 | 47.9 | 35.9 | 36 | 89.5 |  | > 100
7 | COc1cc(/C=C2\N=C(c3ccccc3)N(c3nc4cc(C)c(C)cc4s3)C2=O)cc(OC)c1OC | 70.7 | 66.1 |  | 71.2 | > 100 | 64.8 | 99.1 |  | > 100 | > 100 | 38.9 | > 100 | > 100 | 21.8 | > 100 | > 100 | 68.7 | 53.1 |  | 39.7
8 | CCOC(=O)/C(=C\c1ccnc2ccccc12)P(=O)(OCC)OCC | 15.1 | 9.51 | 3.18 | 13.9 | 14 | 6.93 | 9.19 | 4.22 | 4.33 | 15.3 | 6.74 | 10.5 | 15.5 | 1.96 | 10.7 | 3.35 | 3.43 | 5.38 | 31.3 | 
9 | O=C1NC(=O)[C@@H](OCC2CCCCC2)[C@@H]2OCC3OC(C(O)C3O)C12 (some centres not stated) | > 100 |  |  | > 100 | > 100 |  | > 100 | > 100 | > 100 | > 100 | > 100 | > 100 | > 100 | > 100 | > 100 | > 100 | > 100 | > 100 | > 100 | > 100
10 | COC(=O)/C=C\[C@@H]1[C@H](C)N1S(=O)(=O)c1ccc(C)cc1 (some centres not stated) |  | > 100 | > 100 |  | > 100 |  | > 100 | > 100 | > 100 | > 100 | > 100 | > 100 | > 100 | > 100 | > 100 | > 100 | > 100 | > 100 | > 100 | > 100
11 | COCOc1cc(OC)c(Br)cc1C/C(=N/O)C(=O)OC | > 100 | > 100 | > 100 | > 100 | > 100 |  | > 100 | > 100 | > 100 | > 100 | > 100 | > 100 | > 100 | > 100 | > 100 | > 100 | > 100 | > 100 | > 100 | > 100
12 | CC(=O)OCC1OC(O[C@@H]2C[C@H]3C(C)(C)[C@H](OC(C)=O)CC[C@]3(C)[C@H]3CC[C@]4(C)C(=CC[C@H]4[C@@H](C)C[C@@H](O)[C@H](O)C(C)(C)O)[C@@]32C)C(O)C(O)C1O (some centres not stated) | 40.2 | 25.3 | 5.07 |  | 35.1 | 30.9 | 31.7 | 35.5 | 33.8 | 29.3 | 32.7 | 33 | 32.5 | 35.1 |  | 29.8 | 30.2 | 31.8 |  | 33.3
13 | C/C(=N/NC(=S)N(C)CCc1ccccn1)c1cnccn1 | 12.8 | 12.3 | 20.8 | 19.4 | 34.6 | 21.2 | 10 | 13 |  | 19 | 20.9 | 4.65 | 0.947 | > 68.2 | 17.8 | 40.3 |  | > 100 | 0.0122 | > 100
